Results published in patent publication US6972287B1, “Method of inhibiting amyloid protein aggregation and imaging amyloid deposits” (Pfizer Inc., priority 1999, dated 2005).

Key:
Aβ (1-40) peptide = target: T1, Aβ (1-40) peptide (Homo sapiens, UniProt P05067); assay: BAPA (Beta-Amyloid Peptide Aggregation, pH 6.0, filtration); assay type: biochemical; details: Aβ (1-40) 33 μM, pH 6.0, 2 to 4 hours at room temperature; replicate values; letter = synthetic lot
T1 construct: 10 μL 0.5 mg/mL Aβ (1-40) peptide in 20% HFIP
T1 sequence (P05067 672-711 limits assumed): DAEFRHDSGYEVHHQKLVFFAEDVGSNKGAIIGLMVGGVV
How it was run: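 Aggregation of human Aβ (1-40) peptide was measured in an endpoint filtration assay. The peptide was first reduced to monomer with hexafluoroisopropanol (HFIP), then used at 33 μM so it would aggregate at pH 6.0, and incubated for 2 to 4 hours at room temperature. Filter plates were washed with 100 μL phosphate buffer, impregnated with Meltilex, and counted on a Microbeta counter with background correction.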

Aβ(1-40) [1] = target: T2, Aβ(1-40) (Homo sapiens, UniProt P05067); assay: BASSR (Beta-Amyloid Self-Seeding Radioassay), inhibitors of self-seeded amyloid fibril growth; assay type: biochemical; details: 30 μM soluble Aβ(1-40) + 125I-labeled Aβ(1-40), 37° C., 3 to 5 hours; replicate values; letter = synthetic lot; ppt = precipitate; V-shaped = inhibition followed by precipitation
T2 construct: […]; purchased Bachem, Torrance, Calif
T2 sequence (P05067 672-711 limits assumed): as above
How it was run: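 Self-seeded growth of ^125I-labeled Aβ(1-40) fibrils in 50 mM sodium phosphate pH 7.5, 100 mM NaCl, 0.02% NaN3, 1 M urea; compound (3-fold dilutions from 100 μM final) preincubated 10 min on ice, then 3–5 h at 37° C. Fibrils collected by vacuum filtration on 0.2 μm filters and counted for radioactivity.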

Aβ (1-42) = target: T3, Aβ (1-42) (Homo sapiens, UniProt P05067); assay: BATYM assay (Aβ (1-42) aggregation, Thioflavin T fluorescence); assay type: biochemical; details: Aβ 1-42 final concentration 100 μM, 37° C., 1 day, letter = synthetic lot
T3 construct: Required Aβ (1-42) (California Peptide) was dried from its hexafluoroisopropanol (HFIP) stock solution; purchased California Peptide
T3 sequence (P05067 672-713 limits assumed): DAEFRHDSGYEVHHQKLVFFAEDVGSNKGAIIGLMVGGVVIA
How it was run: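 Aβ (1-42) (100 μM final, PBS pH 7.4 from DMSO) incubated with compound at 37° C. for 1 day. Aggregation read by ThT (30 μM, glycine-NaOH pH 8.5) fluorescence, ex 440/em 485 nm; inhibition as fluorescence reduction corrected for compound-alone signal, IC50 by curve fitting from two experiments in triplicate.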

Aβ(1-40) [2] = target: T2, Aβ(1-40); assay: BASST (Beta-Amyloid Self-Seeding, Thioflavin T), inhibitors of self-seeded amyloid fibril growth; assay type: biochemical; details: 30 μM soluble Aβ(1-40), 37° C., 3 to 5 hours, thioflavin T fluorescence; replicate values; letter = synthetic lot; read-out: BASST (IC50 = μM)
How it was run: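 Self-seeded Aβ(1-40) fibril growth was run in 50 mM sodium phosphate pH 7.5, 100 mM NaCl, 0.02% NaN3, 1 M urea. Compounds were tested in 3-fold serial dilutions (top 100 μM final): 10 min on ice, then 3–5 h at 37 °C. Fibrils were read by 5 μM thioflavin T fluorescence (ex 440/em 485 nm).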

- IC50 (Aβ (1-40) peptide): > 60 µM
- IC50 (Aβ(1-40) [1]): > 100 µM
- IC50 (Aβ (1-42)): 93.4 µM
- IC50 (Aβ(1-40) [2]): 10 µM
- melting point: 128 to 131 °C
SMILES: CN(C)c1ccc(N(C)c2ccc(CCc3ccc(Cl)c(Cl)c3)cc2)c(C(=O)O)c1 [Example 147, 2-({4-[2-(3,4-Dichloro-phenyl)-ethyl]-phenyl}-methyl-amino)-5-dimethylamino-benzoic acid]
